We go through 91 molecules from a melting point compilation (Tetko et al.; mined from patent text by program, amines drawn as free bases though some values may be those of a salt).

Each structure is given as a SMILES string.

The term melting point denotes the temperature of the solid-liquid transition. Regarding `CCOC(=O)c1cnoc1-c1ccc(OC)c(OC)c1`, the melting point is 113 to 114 °C.
`Cn1nc2ccc(NCCCN3CCC(OC(c4ccccc4)c4ccccc4)CC3)nn2c1=O` came in with a melting point of 171 to 172 °C.
In turn, `CCCCCCCCCCCCC(C)(CO)CO` had a melting point of 67 to 68 °C.
The molecule `O=C(O)C1=Cc2cc(-c3ccc(F)cc3)ccc2CC1` had a melting point of 213 to 214 °C.
On to `CCOC(=O)c1c2ccc(Cl)cc2c(-c2ccccc2)n1CCCO`, for which the melting point lay in the range of 94 to 96 °C.
Take `COc1ccc(/C(=C\C=O)c2ccccc2OC)cc1`: the melting point fell in the range of 92 to 94 °C.
With `CS(=O)(=O)Oc1cccc2c1CCCN2`, the melting point lay in the range of 74 to 76 °C.
In the case of `CCOC(OCC)c1nc2sc(C)c(C)n2c(=O)c1C` it was 84 to 85 °C.
The molecule `c1ccc(N(c2ccccc2)c2cccc3cc(-c4nc5ccccc5s4)ccc23)cc1` yielded a melting point of 186 to 187 °C.
In the case of `O=C(NC(CS)Cc1ccccc1)N1CCCC1` (single isomer, unassigned; (+)) it was 92 to 94 °C; in that of `COc1c(C2CCN(CCCCNC(=O)c3ccc(-c4ccc(Cl)nn4)cc3)CC2)ccc2c1CCCC2`, 192 to 194 °C; in that of `CC(C)(C)OC(=O)NC(C)(C)c1ccc(C(=O)CC#N)cc1`, 122 to 123 °C.
As for `Cn1cc(Cl)c2c1C(=O)Nc1ccccc1N2`, the melting point lay within 172 to 175 °C.
Molecule `C#CCN1C(=O)N(c2ccc(C#N)c(C(F)(F)F)c2)C(=O)C1(CF)CF` yielded a melting point of 126 to 127 °C.
The molecule `O=c1oc(-c2cc(C(F)(F)F)cc(C(F)(F)F)c2)cc(O)c1Cc1ccccc1` came in with a melting point of 80 to 82 °C.
In the case of `c1ccc2c(c1)CSCCCN2` it was 77 to 79 °C; in that of `CCn1nc(C(=O)OC)cc1C`, 165 to 168 °C; in that of `C=NOC(c1ccc(C(=O)O)cc1)c1c(C)nn(C)c1Oc1ccccc1` (stereo unspecified), 183 °C.
As for `CC(Oc1cccc(Cl)c1)C(=O)NCCO[N+](=O)[O-]` (stereo unspecified), the melting point lay within 67 to 69 °C.
For `Cc1ccc(C2(O)c3c(C)c(N)c(C)c(C)c3OC2(C)C)cc1` (stereo unspecified), the melting point is 165 to 166 °C.
With `O=C1c2ccccc2C(=O)N1Cc1ccc(OC(F)(F)F)cc1`, the melting point was in the range of 82.1 to 83.6 °C.
For `COP(=O)(OC)C(C)NC(=O)C(C)NC(=O)C(C)NC(=O)CNC(C)(C)C` (stereo unspecified) the value was 148 to 152 °C; for `CCc1nc(NC)sc1-c1ccncc1`, 146 to 149 °C; for `CC1COc2c(N3CC(N)C(C(F)F)C3)c(F)cc3c(=O)c(C(=O)O)cn1c23` (stereo unspecified), 247 to 252 °C.
With `CC12CC(c3ccc(OS(=O)(=O)C(F)(F)F)cc3)C3C4CCC5(CC4=CCC3C1CCC2=O)OCCO5` (stereo unspecified), the melting point was 208 to 210 °C.
With `O=C(NCc1ccc(Cl)nc1)C(Cl)=NNc1ccc(C(F)(F)F)cc1`, the melting point lay within 172 to 173 °C.
For `CCOC(=O)C(CCc1ccccc1)(NC(C)=O)C(=O)OCC` the value was 115 to 117 °C; for `Cc1ccc(C(=O)c2noc(CS(=O)c3ccccc3)n2)cc1` (stereo unspecified), 97 to 99 °C; for `O=C(O)C(CBr)(c1ccccc1)c1ccccc1`, 201 to 202 °C.
Molecule `Cc1ccc(C(=O)c2cccc3c2CCC3C(=O)O)cc1` (stereo unspecified) displayed a melting point of 128 to 131 °C.
The molecule `CCOC(=O)c1cnn(-c2ccc(C)cc2)n1` gave a melting point of 61 to 62 °C.
Molecule `Cc1cc2c(-c3cccc(C=O)c3)c(CC(=O)Nc3ccc(F)cc3C(F)(F)F)c(=O)oc2cc1Cl` gave a melting point of 214 to 215 °C.
In turn, `O=C(O)c1cn(C2CC2)c2c(F)c(N3CC4CC3CN4)c(F)cc2c1=O` (stereo unspecified) returned a melting point of 288 to 290 °C.
Molecule `O=C(C=Cc1ccc(C(F)(F)F)cc1)N1CCCCC1CO` (stereo unspecified) registered a melting point of 139 to 140 °C.
The molecule `O=C1CNCCN1CCc1ccccc1` came in with a melting point of 75 to 78 °C.
Regarding `Cc1nc(N2CCN(Cc3ccc(Cl)cc3)C2=O)sc1C(=O)NCc1cccnc1`, the melting point is 178 to 179 °C.
Regarding `O=c1[nH]cnc2cc(O)c(O)cc12`, the melting point was over 250 °C.
In the case of `Cn1nc2c([N+](=O)[O-])cc3nc(O)c(O)nc3c2n1` it was over 300 °C; in that of `CC(=O)C(Cc1cc(O)c(O)c([N+](=O)[O-])c1)C(=O)C1CC1` (stereo unspecified), 98 to 104 °C.
In the case of `O=c1nc(-c2nccs2)sc2ccccc12` it was 229 to 230 °C; in that of `CC(O)c1cc(-c2cccc(F)c2)ccc1N` (stereo unspecified), 136 to 137 °C; in that of `CN(c1ccc(OC(F)(F)C(F)F)cc1)c1c([N+](=O)[O-])cc([N+](=O)[O-])cc1C(F)(F)F`, 91 to 92 °C.
On to `Nc1nc2ccccc2n2cnc(-c3noc(C4CC4)n3)c12`, for which the melting point lay within 305 to 310 °C.
`C=C(CCCCCCCCCCCCCCCC)CC(CO)COCCCCCCCCCCCCCCCC` (stereo unspecified) had a melting point of 37 to 38 °C.
Molecule `O=[N+]([O-])c1oc2ccc(CCO)cc2c1-c1ccc(CO)cc1` returned a melting point of 135 to 137 °C.
Regarding `CCCCN(CCCC)c1ccc(C=Cc2ccc(C=CC3=C(C#N)C(=C(C#N)C#N)OC3(C)C(F)(F)F)s2)c(OC)c1` (stereo unspecified), the melting point is 191 to 193 °C.
For `NCc1cc(CN)cc(CN)c1` the value was 49 to 51 °C; for `CCCc1c(OCC(O)CSc2ccc(C(=O)CCC(=O)O)c(O)c2)ccc(C(C)=O)c1O` (stereo unspecified), 150 °C; for `O=C(NCC(=O)C(F)(F)F)c1cnc(OCC(F)(F)F)c(-c2ccc(Cl)c(Cl)c2)c1`, 122 to 124 °C.
Consider `O=C1Nc2ccc(I)cc2C1=NNC(=O)c1ccc(I)cc1`, for which the melting point amounted to 326 °C.
The molecule `CCCC1=C(C(=O)OCC)C(c2ccccc2C#N)c2c[nH]nc2N1` (stereo unspecified) showed a melting point of 211 °C.
The molecule `CC(C)(C)NNC(=O)C(C)(C)C` displayed a melting point of 97 to 105 °C.
In the case of `COC(=O)CCc1oc(-n2cnc3ccccc32)nc1-c1ccc(C(F)(F)F)cc1` it was 129 to 130 °C.
In the case of `CCCCCCCCCCNc1ccc(C(=O)Nc2cc(C(=O)NCCSC)ccc2OC)cc1`, the melting point fell in the range of 100 to 104 °C.
For the molecule `O=C(c1ccc(F)cc1)N1CCCC(c2nc(Oc3ccccc3)no2)C1` (stereo unspecified), the melting point was in the range of 96 to 100 °C.
On to `COC(=O)CC1(O)C=CC(=O)C=C1`, for which the melting point fell in the range of 53 to 54 °C.
Molecule `COc1ccc2ccc(N3C(=O)c4ccccc4C3OC(=O)CCCNC(C)=O)nc2n1` (stereo unspecified) gave a melting point of 190 °C.
For `CCCCCCCC(=O)N[C@@H](Cc1ccc(O)cc1)C(=O)OC`, the melting point is 76 °C.
In the case of `N#CC1CN1C(=O)NC(=O)COc1ccccc1` (stereo unspecified) it was 134 to 136 °C; in that of `CCOC(=O)c1ccc2c(SC(=O)N3CCSCC3)cccn2c1=O`, 146 to 148 °C; in that of `OC1CCCCC1N1CCC(Cc2ccc(Cl)cc2)CC1` (stereo unspecified), 69.1 to 70.4 °C.
`CC1CCC(C(=O)Nc2ccc(-c3ncc(-c4ccc(NC(=O)C5CCCCC5C)cc4)[nH]3)cc2)CC1` (stereo unspecified): the melting point lay in the range of 218 to 220 °C.
Regarding `CCCc1ccc2nc(C#N)c(S(N)(=O)=O)n2n1`, the melting point was in the range of 237 to 244 °C.
Molecule `Cc1cncc(C)c1-c1c(C)cc(N)cc1C` came in with a melting point of 134 to 135 °C.
`CC(=O)OCC1COc2c(C(=O)O)cc(Cl)c(Cl)c2O1` (stereo unspecified) came in with a melting point of 144 to 145 °C.
For `COCC(=O)Nc1nc2ccc([N+](=O)[O-])cc2s1`, the melting point lay within 230 to 233 °C.
In turn, `CC(C)(C)OC(=O)Nc1cc(N2CCC(OCCO)CC2)c(I)cc1[N+](=O)[O-]` came in with a melting point of 64 to 65 °C.
In the case of `O=C(c1ccsc1)c1cccc2ccccc12` it was 50 °C; in that of `O=C(c1cc(C(F)(F)F)cc(C(F)(F)F)c1)N1CCNCCC1c1ccccc1` (stereo unspecified), 151 to 153 °C; in that of `O=C1c2cc(S(=O)(=O)N3CCCCC3)ccc2SC12CC2`, 156 to 157 °C.
`CCCCOc1c(CNC(=O)OC(C)(C)C)n(CC(C)C)c(=O)c2ccc(C(C)=O)cc12` came in with a melting point of 161 to 162 °C.
`CC(=CCCC(C)C1CCC2(C)C3=CCC4C(C)(C)C(=O)CCC4(C)C3=CCC12C)CO` (stereo unspecified): the melting point lay in the range of 75 to 80 °C.
For `OC(CCl)COc1ccc(-c2nc(C(F)(F)F)c[nH]2)cc1` (stereo unspecified) the value was 181 to 183 °C; for `ClCCOc1cccc2nc[nH]c12`, 153 to 154 °C.
For `N#CN=C(Nc1ccc(Cl)nc1)Oc1ccccc1` the value was 133 to 134 °C.
Turning to `OCC1OC(n2cnc3c(NC4CCCC4O)ncnc32)C(O)C1O` (stereo unspecified), the melting point was 163 to 164 °C.
`CCc1nc(/C=C\c2cn(-c3ccccc3)nc2OCc2ccc(OCc3nc(-c4ccco4)oc3C)c(OC)c2)cs1` displayed a melting point of 108 to 109 °C.
In the case of `CCOC(=O)Nc1ccc(NCc2coc3ccc(F)cc23)cc1N` it was 150 to 151 °C.
`Cc1cc(C)cc(COC(=O)C(Cc2c[nH]c3ccccc23)NC(=O)C2CCCCC2)c1` (stereo unspecified): the melting point is 143 to 144 °C.
Molecule `Cc1cc(-c2sc(N3CCN(Cc4cccc(C(F)(F)F)c4)C3=O)nc2C)n[nH]1` registered a melting point of 163 to 164 °C.
In the case of `CC(C)(C)OC(=O)NNC(=S)Nc1ccc(F)cc1`, the melting point lay within 158 to 160 °C.
`OC1CCCCC1n1ccnc1` (stereo unspecified) came in with a melting point of 127 to 131 °C.
`COc1c(-c2noc3ccsc23)ccc2c1O2` registered a melting point of 88 to 90 °C.
`CC(CCCC(C)(C)O)C1CCC2C3=CC=C4CCCC(O)C4(C)C3CCC21C` (stereo unspecified): the melting point is 151 to 152 °C.
The molecule `CN(Cc1cccc2c1C(=O)N(C1CCC(=O)NC1=O)C2=O)C(=O)C1CC1` (stereo unspecified) came in with a melting point of 243 to 245 °C.
With `Cn1cncc1C(N)(c1ccc(C#N)cc1)c1ccc2c(c1)c(-c1cccc(Cl)c1)cc(=O)n2C` (stereo unspecified), the melting point is 245 °C.
`CCc1cccc(CC)c1NC(=O)Nc1oc2ccc(C)cc2c1-c1ccccc1Cl` gave a melting point of 214 to 215 °C.
For `COc1cc(COCCc2cccc(NS(=O)(=O)C(F)(F)F)c2)ccc1-c1ccc(Cl)cc1` the value was 88 to 90 °C; for `CNc1nc(OC)ccc1[N+](=O)[O-]`, 152 to 153 °C; for `CC1(C)C(=O)N(CC#CI)C(=O)N1Cc1ccccc1`, 109 to 112 °C.
For the molecule `COC(=O)c1ccc(-c2ccc3cc(OS(=O)(=O)C(F)(F)F)c(C45CC6CC(CC(C6)C4)C5)cc3c2)cc1`, the melting point lay within 226 to 227 °C.
